Earlier results as cited in patent publication US11045513B2, “Association of dry extracts of Vicia faba, Uncaria rhyncophylla and liquorice root together with coenzyme Q10 for use as coadjuvant, for improving the quality of life in subjects suffering from movement disorders” (CRISTALFARMA S.R.L., priority 2018, dated 2021).

Biological target: dopamine D3 receptor (DRD3) (Homo sapiens, UniProt P35462)
Sequence (P35462 whole entry): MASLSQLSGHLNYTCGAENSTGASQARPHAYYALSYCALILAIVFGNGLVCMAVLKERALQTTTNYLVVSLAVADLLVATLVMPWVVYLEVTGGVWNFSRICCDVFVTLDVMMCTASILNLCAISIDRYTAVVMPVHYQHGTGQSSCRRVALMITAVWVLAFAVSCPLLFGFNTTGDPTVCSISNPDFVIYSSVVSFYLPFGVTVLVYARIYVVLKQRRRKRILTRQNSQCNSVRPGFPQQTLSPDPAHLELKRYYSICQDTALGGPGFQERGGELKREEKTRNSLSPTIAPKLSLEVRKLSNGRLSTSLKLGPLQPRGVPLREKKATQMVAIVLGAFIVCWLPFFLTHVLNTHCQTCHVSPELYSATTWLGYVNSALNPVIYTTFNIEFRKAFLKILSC

binding affinity for the dopamine D3 receptor (DRD3): strong binding affinity
Structure (SMILES): CC1(C)[C@@H](O)CC[C@]2(C)[C@H]3C(=O)C=C4[C@@H]5C[C@@](C)(C(=O)O)CC[C@]5(C)CC[C@@]4(C)[C@]3(C)CC[C@@H]12 [glycyrrhetinic acid]
